Measurements taken from patent US8952024B2, “Herbicidal pyrimidone derivatives” (E I du Pont de Nemours and Company, priority 2009, dated 2015).

Assays:
Assay type in all cases: in vivo
[1] = tested on: goosegrass (Eleusine indica); test: Test B pre-/postemergence plant response; settings: Preemergence, 62 g ai/ha; scale 0 to 100 (0 no effect, 100 complete control)
[2] = tested on: winter barley (Hordeum vulgare); test: Test B postemergence plant response; settings: Postemergence; for Barley plant response rating: scale 0 to 100
In short: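 Plants at the 1- to 4-leaf stage (2 to 18 cm tall), grown in pots of peat moss/vermiculite medium with wetting agent and starter nutrients, received postemergence applications of test chemicals. After 13 to 15 days in a greenhouse, injury was rated visually against untreated controls on a 0 (no effect) to 100 (complete control) scale.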

[3] = tested on: sunflower (common oilseed sunflower, Helianthus annuus); test: Test B pre-/postemergence plant response; settings: Preemergence
In short: (§1)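 Steps: sow seed in loam–sand soil and spray preemergence, or grow plants in peat-based medium to 1–4 leaves (2–18 cm) and spray postemergence; formulation is non-phytotoxic solvent plus surfactant; hold in greenhouse 13–15 days; score visually vs controls, 0 = no effect, 100 = complete control.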

[4] = tested on: galium (catchweed bedstraw, Galium aparine); test: Test B pre-/postemergence plant response; settings: Preemergence
In short: as §1

[5] = tested on: nightshade (eastern black nightshade, Solanum ptycanthum); test: Test B pre-/postemergence plant response; settings: Preemergence
In short: as §1

[6] = tested on: prickly sida (Sida spinosa); test: Test D pre-/postemergence plant response
In short: (§2)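 Under greenhouse conditions for 14 to 21 days, plants treated pre- or postemergence with surfactant-formulated compound were compared by eye with untreated controls and scored 0–100 (100 = complete control; dash = no result).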

[7] = tested on: Surinam grass (Brachiaria decumbens); test: Test D pre-/postemergence plant response
In short: as §2

[8] = tested on: barnyardgrass (Echinochloa crus-galli); test: Test D pre-/postemergence plant response
In short: as §2

[9] = tested on: Italian ryegrass (Lolium multiflorum); test: Test D pre-/postemergence plant response
In short: as §2

[10] = tested on: black mustard (Brassica nigra); test: Test D pre-/postemergence plant response
In short: as §2

[11] = tested on: Russian thistle (Salsola kali); test: Test D pre-/postemergence plant response
In short: as §2

[12] = tested on: Russian thistle (Salsola kali); test: Test B pre-/postemergence plant response; settings: Preemergence
In short: as §1

[13] = 31 g ai/ha, scale 0 to 100 (0 no effect, 100 complete control)
[14] = 62 g ai/ha, scale 0 (no effect) to 100 (complete control), 13 to 15 days
[15] = 62 g ai/ha, scale 0 to 100 (0 no effect, 100 complete control)
[16] = Postemergence, 31 g ai/ha, scale 0 to 100
[17] = Postemergence, 62 g ai/ha, scale 0 to 100 (0 no effect, 100 complete control)
[18] = Postemergence, 125 g ai/ha, scale 0 to 100 (0 no effect, 100 complete control)
[19] = Postemergence, 250 g ai/ha, scale 0 to 100 (0 no effect, 100 complete control)
[20] = Preemergence, 62 g ai/ha, scale 0 to 100
[21] = Preemergence, 125 g ai/ha, scale 0 to 100
[22] = Preemergence, 250 g ai/ha, scale 0 to 100
[23] = 125 g ai/ha, scale 0 to 100, 0 no effect, 100 complete control

O=C1CCCC(O)=C1C(=O)c1cnc(-c2ccccc2)n(-c2ccccc2F)c1=O [Compound 26]
Plant response rating, Goosegrass [1]: 80 | Plant response rating, Barley [2, 13]: 0 | Plant response rating, Barley [2, 14]: 0 | Plant response rating, Barley ([2]; 125 g ai/ha, scale 0 to 100 (0 no effect, 100 complete control), 13 to 15 days): 0 | Barley plant response rating ([2]; 250 g ai/ha): 0 | Plant response rating, Sunflower ([3]; 250 g ai/ha, 0 to 100 scale): 95 | Plant response rating, Sunflower [3, 13]: 60 | Plant response rating, Sunflower [3, 15]: 90 | Sunflower plant response rating ([3]; 125 g ai/ha, 0 to 100 scale): 90 | Plant response rating, Galium ([4]; 250 g ai/ha, 0 to 100 scale): 98 | Plant response rating, Galium [4, 13]: 0 | Plant response rating, Galium [4, 15]: 50 | Galium plant response rating ([4]; 125 g ai/ha, 0 to 100 scale): 90 | Plant response rating, Nightshade ([5]; 250 g ai/ha, 0 to 100 scale): 100 | Plant response rating, Nightshade [5, 13]: 85 | Plant response rating, Nightshade [5, 15]: 100 | Nightshade plant response rating ([5]; 125 g ai/ha, 0 to 100 scale): 100

CCCCc1ncc(C(=O)C2=C(O)CCCC2=O)c(=O)n1-c1ccccc1 [Compound 42]
Plant response rating, Goosegrass [1]: 95 | Plant response rating, Barley [2, 13]: 0 | Plant response rating, Barley [2, 14]: 0 | Plant response rating, Barley ([2]; 125 g ai/ha, visual rating after 13 to 15 days, scale 0 (no effect) to 100 (complete control)): 0 | Barley plant response rating ([2]; 250 g ai/ha): 5 | Plant response rating, Sunflower ([3]; 250 g ai/ha, 0 to 100 scale): 75 | Plant response rating, Sunflower [3, 13]: 0 | Sunflower plant response rating ([3]; 125 g ai/ha, 0 to 100 scale): 55 | Plant response rating, Galium ([4]; 250 g ai/ha, 0 to 100 scale): 50 | Plant response rating, Galium [4, 13]: 0 | Plant response rating, Galium [4, 15]: 0 | Galium plant response rating ([4]; 125 g ai/ha, 0 to 100 scale): 10 | Plant response rating, Nightshade ([5]; 250 g ai/ha, 0 to 100 scale): 100 | Plant response rating, Nightshade [5, 13]: 100 | Plant response rating, Nightshade [5, 15]: 100 | Nightshade plant response rating ([5]; 125 g ai/ha, 0 to 100 scale): 100

COCCn1c(-c2cc(F)cc(F)c2)ncc(C(=O)C2=C(O)C3CCC(C3)C2=O)c1=O (centres unmarked) [Compound 243, 2-(3,5-difluorophenyl)-5-[(2-hydroxy-4-oxobicyclo[3.2.1]oct-2-en-3-yl)carbonyl]-3-(2-methoxyethyl)-4(3H)-pyrimidinone]
Plant response rating, Prickly Sida [6, 16]: 60 | Plant response rating, Prickly Sida [6, 17]: 65 | Plant response rating, Prickly Sida [6, 18]: 70 | Plant response rating, Prickly Sida [6, 19]: 80 | Plant response rating, Prickly Sida [6, 20]: 100 | Plant response rating, Prickly Sida [6, 21]: 100 | Plant response rating, Prickly Sida [6, 22]: 100 | Plant response rating, Surinam Grass [7, 16]: 75 | Plant response rating, Surinam Grass [7, 17]: 75 | Plant response rating, Surinam Grass [7, 18]: 75 | Plant response rating, Surinam Grass [7, 19]: 85 | Plant response rating, Surinam Grass [7, 21]: 100 | Plant response rating, Surinam Grass [7, 22]: 100 | Plant response rating, Barnyardgrass [8, 16]: 75 | Plant response rating, Barnyardgrass [8, 17]: 80 | Plant response rating, Barnyardgrass [8, 18]: 80 | Plant response rating, Barnyardgrass [8, 19]: 90 | Plant response rating, Barnyardgrass [8, 20]: 100 | Plant response rating, Barnyardgrass [8, 21]: 100 | Plant response rating, Barnyardgrass [8, 22]: 100 | Plant response rating, Ryegrass, Italian [9, 16]: 0 | Plant response rating, Ryegrass, Italian [9, 17]: 20 | Plant response rating, Ryegrass, Italian [9, 18]: 30 | Plant response rating, Ryegrass, Italian [9, 19]: 65 | Plant response rating, Ryegrass, Italian [9, 21]: 98 | Plant response rating, Ryegrass, Italian [9, 22]: 100 | Plant response rating, Black Mustard [10, 16]: 50 | Plant response rating, Black Mustard [10, 17]: 75 | Plant response rating, Black Mustard [10, 18]: 98 | Plant response rating, Black Mustard [10, 19]: 98 | Plant response rating, Black Mustard [10, 20]: 100 | Plant response rating, Black Mustard [10, 21]: 100 | Plant response rating, Black Mustard [10, 22]: 100 | Plant response rating, Russian Thistle [11, 16]: 20 | Plant response rating, Russian Thistle [11, 17]: 30 | Plant response rating, Russian Thistle [11, 18]: 30 | Plant response rating, Russian Thistle [11, 19]: 60 | Plant response rating, Russian Thistle [11, 21]: 100 | Plant response rating, Russian Thistle [11, 22]: 100 | plant injury at 31 g/ha ([2]; Hordeum vulgare, post-emergence, 31 g ai/ha, 0 to 100 scale (0 no effect, 100 complete control), read-out: Plant response rating, Barley): 60% | plant injury at 62 g/ha ([2]; Hordeum vulgare, post-emergence, 62 g ai/ha, scale 0 to 100 (0 no effect, 100 complete control), read-out: Plant response rating, Barley): 90% | plant injury at 125 g/ha ([2]; Hordeum vulgare, post-emergence, 125 g ai/ha, scale 0 (no effect) to 100 (complete control), 13 to 15 days, read-out: Plant response rating, Barley): 95% | plant injury at 250 g/ha ([2]; Hordeum vulgare, post-emergence, 250 g ai/ha, scale 0 to 100 (0 no effect, 100 complete control), 13 to 15 days, read-out: Plant response rating, Barley): 95% | Plant response rating, Sunflower [3, 13]: 80 | Plant response rating, Sunflower [3, 15]: 85 | Plant response rating, Sunflower [3, 23]: 95 | Sunflower plant response rating ([3]; 250 g ai/ha, 0 to 100 scale): 95 | Plant response rating, Galium [4, 13]: 85 | Plant response rating, Galium [4, 15]: 90 | Plant response rating, Galium [4, 23]: 98 | Galium plant response rating ([4]; 250 g ai/ha, 0 to 100 scale): 100 | Plant response rating, Russian Thistle [12, 13]: 100 | Plant response rating, Russian Thistle [12, 15]: 100 | Plant response rating, Russian Thistle [12, 23]: 100 | Russian Thistle plant response rating ([12]; 250 g ai/ha, 0 to 100 scale): 100 | Plant response rating, Nightshade [5, 13]: 90 | Plant response rating, Nightshade [5, 15]: 98 | Plant response rating, Nightshade [5, 23]: 98 | Nightshade plant response rating ([5]; 250 g ai/ha, 0 to 100 scale): 98
